PubChem BioAssay AID1918938 (Molecular Pharmacology Branch, DTP, NCI, 2023)

System: 556581-035-R-J1-PDC complex spheroid viability
Assay: Anticancer human tumor 556581-035-R-J1-PDC patient-derived ovarian carcinoma cell line growth inhibition
Settings: for IC50: curve of first compound; for viability, T/C: stronger effect = lower value
In short: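 Drug combinations with the LSD1 inhibitor iadademstat tested on tumor cells co-cultured as spheroids with endothelial cells and mesenchymal stem cells. Concentrations descended in half-log increments from clinical Cmax or 10 microM.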

[1] = second compound 0.1 µM, first compound 0.00316 µM
[2] = second compound 0.1 µM, first compound 0.01 µM
[3] = second compound 0.1 µM, first compound 0.0316 µM
[4] = second compound 0.1 µM, first compound 0.1 µM
[5] = second compound 0.1 µM, first compound 0.316 µM
[6] = second compound 0.1 µM, first compound 1 µM
[7] = second compound 0.316 µM, first compound 0.00316 µM
[8] = second compound 0.316 µM, first compound 0.01 µM
[9] = second compound 0.316 µM, first compound 0.0316 µM
[10] = second compound 0.316 µM, first compound 0.1 µM
[11] = second compound 0.316 µM, first compound 0.316 µM
[12] = second compound 0.316 µM, first compound 1 µM
[13] = second compound 1 µM, first compound 0.00316 µM
[14] = second compound 1 µM, first compound 0.01 µM
[15] = second compound 1 µM, first compound 0.0316 µM
[16] = second compound 1 µM, first compound 0.1 µM
[17] = second compound 1 µM, first compound 0.316 µM
[18] = second compound 1 µM, first compound 1 µM
[19] = second compound 3.16 µM, first compound 0.00316 µM
[20] = second compound 3.16 µM, first compound 0.01 µM
[21] = second compound 3.16 µM, first compound 0.0316 µM
[22] = second compound 3.16 µM, first compound 0.1 µM
[23] = second compound 3.16 µM, first compound 0.316 µM
[24] = second compound 3.16 µM, first compound 1 µM
[25] = second compound 10 µM, first compound 0.00316 µM
[26] = second compound 10 µM, first compound 0.01 µM
[27] = second compound 10 µM, first compound 0.0316 µM
[28] = second compound 10 µM, first compound 0.1 µM
[29] = second compound 10 µM, first compound 0.316 µM
[30] = second compound 10 µM, first compound 1 µM
[31] = second compound 0.1 µM, first compound 0.00949 µM
[32] = second compound 0.1 µM, first compound 0.03 µM
[33] = second compound 0.1 µM, first compound 0.0949 µM
[34] = second compound 0.1 µM, first compound 0.3 µM
[35] = second compound 0.316 µM, first compound 0.00949 µM
[36] = second compound 0.316 µM, first compound 0.03 µM
[37] = second compound 0.316 µM, first compound 0.0949 µM
[38] = second compound 0.316 µM, first compound 0.3 µM
[39] = second compound 1 µM, first compound 0.00949 µM
[40] = second compound 1 µM, first compound 0.03 µM
[41] = second compound 1 µM, first compound 0.0949 µM
[42] = second compound 1 µM, first compound 0.3 µM
[43] = second compound 3.16 µM, first compound 0.00949 µM
[44] = second compound 3.16 µM, first compound 0.03 µM
[45] = second compound 3.16 µM, first compound 0.0949 µM
[46] = second compound 3.16 µM, first compound 0.3 µM
[47] = second compound 10 µM, first compound 0.00949 µM
[48] = second compound 10 µM, first compound 0.03 µM
[49] = second compound 10 µM, first compound 0.0949 µM
[50] = second compound 10 µM, first compound 0.3 µM
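Also: spheroids exposed to agents for seven days.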
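For viability, T/C in this document: 100% = DMSO vehicle control wells.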

## CC1COCCN1c1cc(-c2ccnn2C)c2ccnc(-c3ccn[nH]3)c2n1 (stereo not given) + NC1CC1c1ccc(-c2cccc(O)c2)cc1
Second compound 0.1 µM
  IC50: 0.00522 µM
Second compound 0.316 µM
  IC50: 0.00445 µM
Second compound 1 µM
  IC50: 0.0033 µM
Second compound 3.16 µM
  IC50: 0.00531 µM
Second compound 10 µM
  IC50: 0.00898 µM
[1]
  viability, T/C: 54.8%
[2]
  viability, T/C: 44%
[3]
  viability, T/C: 33.5%
[4]
  viability, T/C: 25.4%
[5]
  viability, T/C: 21.7%
[6]
  viability, T/C: 10.2%
[7]
  viability, T/C: 51.2%
[8]
  viability, T/C: 47.9%
[9]
  viability, T/C: 33.4%
[10]
  viability, T/C: 23.8%
[11]
  viability, T/C: 23%
[12]
  viability, T/C: 10.6%
[13]
  viability, T/C: 49.5%
[14]
  viability, T/C: 47.1%
[15]
  viability, T/C: 34.3%
[16]
  viability, T/C: 26.4%
[17]
  viability, T/C: 26.1%
[18]
  viability, T/C: 9.41%
[19]
  viability, T/C: 54.6%
[20]
  viability, T/C: 44.5%
[21]
  viability, T/C: 38.5%
[22]
  viability, T/C: 29.2%
[23]
  viability, T/C: 26.9%
[24]
  viability, T/C: 11%
[25]
  viability, T/C: 55.3%
[26]
  viability, T/C: 49.9%
[27]
  viability, T/C: 36.4%
[28]
  viability, T/C: 29.7%
[29]
  viability, T/C: 26%
[30]
  viability, T/C: 25.6%

## CC1COCCN1c1cc(C2(S(C)(=N)=O)CC2)nc(-c2ccnc3[nH]ccc23)n1 (stereo not given) + NC1CC1c1ccc(-c2cccc(O)c2)cc1
Second compound 0.1 µM
  IC50: 5.95 µM
Second compound 0.316 µM
  IC50: 5.94 µM
Second compound 1 µM
  IC50: 5.37 µM
Second compound 3.16 µM
  IC50: > 10 µM
Second compound 10 µM
  IC50: > 10 µM
[3]
  viability, T/C: 101%
[4]
  viability, T/C: 98.6%
[5]
  viability, T/C: 78.9%
[6]
  viability, T/C: 72.3%
Second compound 0.1 µM, first compound 3.16 µM
  viability, T/C: 52.5%
Second compound 0.1 µM, first compound 10 µM
  viability, T/C: 46.7%
[9]
  viability, T/C: 95.3%
[10]
  viability, T/C: 85.5%
[11]
  viability, T/C: 77.8%
[12]
  viability, T/C: 70.7%
Second compound 0.316 µM, first compound 3.16 µM
  viability, T/C: 52.6%
Second compound 0.316 µM, first compound 10 µM
  viability, T/C: 46.3%
[15]
  viability, T/C: 87.9%
[16]
  viability, T/C: 88.9%
[17]
  viability, T/C: 84.3%
[18]
  viability, T/C: 77.4%
Second compound 1 µM, first compound 3.16 µM
  viability, T/C: 53.7%
Second compound 1 µM, first compound 10 µM
  viability, T/C: 45.5%
[21]
  viability, T/C: 87.9%
[22]
  viability, T/C: 96%
[23]
  viability, T/C: 85.5%
[24]
  viability, T/C: 70.5%
Second compound 3.16 µM, first compound 3.16 µM
  viability, T/C: 54.2%
Second compound 3.16 µM, first compound 10 µM
  viability, T/C: 50.9%
[27]
  viability, T/C: 88.4%
[28]
  viability, T/C: 84.8%
[29]
  viability, T/C: 78.3%
[30]
  viability, T/C: 69.7%
Second compound 10 µM, first compound 3.16 µM
  viability, T/C: 51.3%
Second compound 10 µM, first compound 10 µM
  viability, T/C: 54.7%

## CCN(c1cc(-c2ccc(CN3CCOCC3)cc2)cc(C(=O)NCc2c(C)cc(C)[nH]c2=O)c1C)C1CCOCC1 + NC1CC1c1ccc(-c2cccc(O)c2)cc1
Second compound 0.1 µM
  IC50: 0.776 µM
Second compound 0.316 µM
  IC50: 0.732 µM
Second compound 1 µM
  IC50: 0.633 µM
Second compound 3.16 µM
  IC50: 0.466 µM
Second compound 10 µM
  IC50: 0.666 µM
[31]
  viability, T/C: 106%
[32]
  viability, T/C: 92.2%
[33]
  viability, T/C: 86.7%
[34]
  viability, T/C: 73.4%
Second compound 0.1 µM, first compound 0.949 µM
  viability, T/C: 42.5%
Second compound 0.1 µM, first compound 3 µM
  viability, T/C: 25.1%
[35]
  viability, T/C: 105%
[36]
  viability, T/C: 95.5%
[37]
  viability, T/C: 78.5%
[38]
  viability, T/C: 69.3%
Second compound 0.316 µM, first compound 0.949 µM
  viability, T/C: 42.7%
Second compound 0.316 µM, first compound 3 µM
  viability, T/C: 27.4%
[39]
  viability, T/C: 94.2%
[40]
  viability, T/C: 84.7%
[41]
  viability, T/C: 84.8%
[42]
  viability, T/C: 66.8%
Second compound 1 µM, first compound 0.949 µM
  viability, T/C: 40.5%
Second compound 1 µM, first compound 3 µM
  viability, T/C: 30.5%
[43]
  viability, T/C: 98.7%
[44]
  viability, T/C: 102%
[45]
  viability, T/C: 78%
[46]
  viability, T/C: 58.1%
Second compound 3.16 µM, first compound 0.949 µM
  viability, T/C: 39.4%
Second compound 3.16 µM, first compound 3 µM
  viability, T/C: 32.5%
[47]
  viability, T/C: 83.6%
[48]
  viability, T/C: 87.7%
[49]
  viability, T/C: 82.1%
[50]
  viability, T/C: 63.6%
Second compound 10 µM, first compound 0.949 µM
  viability, T/C: 44.6%
Second compound 10 µM, first compound 3 µM
  viability, T/C: 30.6%

## Nc1ncn(C2CC(O)C(CO)S2)c(=O)n1 (stereo not given) + NC1CC1c1ccc(-c2cccc(O)c2)cc1
Second compound 0.1 µM
  IC50: 0.0375 µM
Second compound 0.316 µM
  IC50: 0.0331 µM
Second compound 1 µM
  IC50: 0.0347 µM
Second compound 3.16 µM
  IC50: 0.0337 µM
Second compound 10 µM
  IC50: 0.0288 µM
Second compound 0.1 µM, first compound 0.000949 µM
  viability, T/C: 86.7%
Second compound 0.1 µM, first compound 0.003 µM
  viability, T/C: 84.5%
[31]
  viability, T/C: 78.2%
[32]
  viability, T/C: 52%
[33]
  viability, T/C: 34.1%
[34]
  viability, T/C: 20.6%
Second compound 0.316 µM, first compound 0.000949 µM
  viability, T/C: 85.9%
Second compound 0.316 µM, first compound 0.003 µM
  viability, T/C: 80%
[35]
  viability, T/C: 88.1%
[36]
  viability, T/C: 52.4%
[37]
  viability, T/C: 27.9%
[38]
  viability, T/C: 22.4%
Second compound 1 µM, first compound 0.000949 µM
  viability, T/C: 80.5%
Second compound 1 µM, first compound 0.003 µM
  viability, T/C: 83.5%
[39]
  viability, T/C: 70%
[40]
  viability, T/C: 54.1%
[41]
  viability, T/C: 30.8%
[42]
  viability, T/C: 24%
Second compound 3.16 µM, first compound 0.000949 µM
  viability, T/C: 88.7%
Second compound 3.16 µM, first compound 0.003 µM
  viability, T/C: 93.6%
[43]
  viability, T/C: 73.7%
[44]
  viability, T/C: 52.6%
[45]
  viability, T/C: 33.1%
[46]
  viability, T/C: 25.4%
Second compound 10 µM, first compound 0.000949 µM
  viability, T/C: 82.2%
Second compound 10 µM, first compound 0.003 µM
  viability, T/C: 79.7%
[47]
  viability, T/C: 65.4%
[48]
  viability, T/C: 52%
[49]
  viability, T/C: 32.1%
[50]
  viability, T/C: 29.9%

## O=C(C=Cn1cnc(-c2cc(C(F)(F)F)cc(C(F)(F)F)c2)n1)NNc1cnccn1 + NC1CC1c1ccc(-c2cccc(O)c2)cc1
Second compound 0.1 µM
  IC50: 0.0406 µM
Second compound 0.316 µM
  IC50: 0.0513 µM
Second compound 1 µM
  IC50: 0.0705 µM
Second compound 3.16 µM
  IC50: 0.0734 µM
Second compound 10 µM
  IC50: 0.0801 µM
[1]
  viability, T/C: 68%
[2]
  viability, T/C: 63.7%
[3]
  viability, T/C: 52.4%
[4]
  viability, T/C: 38.5%
[5]
  viability, T/C: 16.9%
[6]
  viability, T/C: 6.78%
[7]
  viability, T/C: 74.5%
[8]
  viability, T/C: 73.1%
[9]
  viability, T/C: 61.4%
[10]
  viability, T/C: 32.6%
[11]
  viability, T/C: 22.7%
[12]
  viability, T/C: 4.35%
[13]
  viability, T/C: 76.9%
[14]
  viability, T/C: 74.2%
[15]
  viability, T/C: 72.3%
[16]
  viability, T/C: 40.1%
[17]
  viability, T/C: 17.2%
[18]
  viability, T/C: 10.3%
[19]
  viability, T/C: 73.1%
[20]
  viability, T/C: 74.3%
[21]
  viability, T/C: 61%
[22]
  viability, T/C: 43.7%
[23]
  viability, T/C: 28%
[24]
  viability, T/C: 8%
[25]
  viability, T/C: 71.3%
[26]
  viability, T/C: 77.7%
[27]
  viability, T/C: 56.5%
[28]
  viability, T/C: 52.3%
[29]
  viability, T/C: 20.2%
[30]
  viability, T/C: 13.4%
